Converted amounts (≈) assume the structure as drawn. “Also recorded” adds a separate entry of the source. Where a name gives a salt, the structure may show the parent alone. Read-outs that look alike come from different tables or passages of the source.
Assays:
[1] = BCS (Biopharmaceutical Classification System) classification; type: physicochemical; conditions: high permeability, low solubility
Source text: To take these two factors into account, a classification of drug products was introduced, known as BCS (Biopharmaceutical Classification System) (G L Amidon et al., Pharm. Res. 1995, 12: 413-419). Since it is endowed with good permeability and low solubility, 6-(1H-imidazol-1-yl)-2-phenylquinazoline falls into class II (high permeability, low solubility) of the BCS system. For the drug products of this class, the solubility is fundamental in determining their absorption. The preparation of pharmaceutically acceptable salts generally represents a means for increasing the solubility of sparingly soluble products, and, in the case of products endowed with good permeability, is a suitable means for increasing their bioavailability.

[2] = Pharmacokinetics in rats, oral versus intravenous administration; type: in vivo; conditions: for F (bioavailability) / bioavailability: OS 10 mg/Kg compared with IV 5 mg/kg; for bioavailability: read-out: F (bioavailability); for half-life: read-out: T½
Experimental: The samples are analysed by HPLC-MS to determine the content of 6-(1H-imidazol-1-yl)-2-phenylquinazoline, using diphenylhydramine hydrochloride as internal standard. The pharmacokinetic parameters measured are summarized hereinbelow: it is noted that, despite the fact that the polymorph under consideration is of low solubility, the bioavailability (F %) is entirely acceptable.
The pharmacokinetic parameters measured are summarized hereinbelow: it is noted that the salt under consideration has optimum bioavailability (F %). […]

[3] = Stability to mechanical stress (milling, XRPD); type: physicochemical; conditions: Retsch MM 200 mill, 50 Hz, 5 min.
Experimental: 6-(1H-Imidazol-1-yl)-2-phenylquinazoline, polymorph A, was subjected to milling by means of a Retsch MM 200 mill, at 50 Hz for 5 min., and the product thus obtained was analysed by XRPD.
6-(1H-Imidazol-1-yl)-2-phenylquinazoline succinate form A, was subjected to milling by means of a Retsch MM 200 mill, at 50 Hz for 5 min., and the product thus obtained was subjected to XRPD analysis.
6-(1H-Imidazol-1-yl)-2-phenylquinazoline L-tartrate dihydrate, form A, was subjected to milling by means of a Retsch MM 200 mill, at 50 Hz for 5 min., and the product thus obtained was subjected to XRPD analysis.
6-(1H-Imidazol-1-yl)-2-phenylquinazoline maleate, form A, was subjected to milling by means of a Retsch MM 200 mill, at 50 Hz for 5 min., and the product thus obtained was subjected to XRPD analysis.

[4] = Dissolution rate in water at 37° C.; type: physicochemical; conditions: 2 mg of product in 40 mL of water at 37° C., 500 rpm, absorbance at 260 nm
Experimental: (§1) The sample of 6-(1H-imidazol-1-yl)-2-phenylquinazoline phosphate, form A, is stirred in an aqueous solution of NaCl 0.9%, at 500 rpm, so as to obtain a suspension (70 mg in 2 mL), for 24 hours at 37° C. […] The dissolution rate is measured by adding 2 mg of product to 40 mL of water at 37° C., stirring at 500 rpm, and measuring the absorbance at 260 nm every 0.05 min; the dissolution rate is found to be 1.9×10^−4 gr/min.

[5] = Solubility in aqueous solution of NaCl 0.9% (UV absorbance at 260 nm); type: physicochemical; conditions: aqueous solution of NaCl 0.9%, 37 °C, saline or isotonic, thermodynamic from solid, aqueous NaCl 0.9%, stirred 500 rpm, 24 hours at 37° C.
Experimental: The solubility is 0.6 mg/mL. […]
The sample of 6-(1H-imidazol-1-yl)-2-phenylquinazoline phosphate, form A, is stirred in an aqueous solution of NaCl 0.9%, at 500 rpm, so as to obtain a suspension (50 mg in 2 mL), for 24 hours at 37° C.
as §1

[6] = Stability to moisture, DVS analysis (Differential Vapour Sorption); type: physicochemical; conditions: 25° C.; for hygroscopicity (DVS): hydration/dehydration cycle
Experimental: The sample placed on a microbalance is subjected, in a chamber of controlled humidity, at 25° C., to a cycle of hydration (increasing humidity, red line) and of dehydration (decreasing humidity, blue line).
The sample of 6-(1H-imidazol-1-yl)-2-phenylquinazoline succinate form A was subjected to DVS analysis (as described in Example 32).
The sample of 6-(1H-imidazol-1-yl)-2-phenylquinazoline L-tartrate dihydrate, form A, was subjected to DVS analysis.
The sample of 6-(1H-imidazol-1-yl)-2-phenylquinazoline maleate, form A, was subjected to DVS analysis.

[7] = Thermal stability of the crystalline form (XRPD)
[8] = Hygroscopicity noted for the isolated crystalline product; type: physicochemical; conditions: as noted in the preparation example
physchem = conditions: 37 °C, pH 2, aqueous buffer, thermodynamic from solid
Experimental: A sample of 6-(1H-imidazol-1-yl)-2-phenylquinazoline, polymorph A (150 mg), is stirred in a phosphate buffer solution at pH 7.4 (8 mL), at 500 rpm, so as to obtain a suspension, for 24 hours at 37° C. The suspension is then filtered and the concentration of the dissolved product is measured by reading the UV absorbance at 260 nm. […] A sample of 6-(1H-imidazol-1-yl)-2-phenylquinazoline, polymorph A (250 mg), is stirred in a phosphate buffer solution at pH 2 (2 mL), at 500 rpm, so as to obtain a suspension, for 24 hours at 37° C. The suspension is then filtered and the concentration of the dissolved product is measured by reading the UV absorbance at 260 nm.
A sample of 6-(1H-imidazol-1-yl)-2-phenylquinazoline, form B, (50 mg), is stirred in a phosphate buffer solution at pH 7.4 (2 mL), at 500 rpm, so as to obtain a suspension, for 24 hours at 37° C. The suspension is then filtered and the concentration of the dissolved product is measured by reading the UV absorbance at 260 nm.
A sample of 6-(1H-imidazol-1-yl)-2-phenylquinazoline, form C (30 mg), is stirred in a phosphate buffer solution at pH 7.4 (2 mL), at 500 rpm, so as to obtain a suspension, for 24 hours at 37° C. The suspension is then filtered and the concentration of the dissolved product is measured by reading the UV absorbance at 260 nm. […]

[9] = IV, 5 mg/kg, dihydrochloride monohydrate
[10] = OS (oral), 10 mg/Kg, dihydrochloride monohydrate
[11] = rat, blood, iv, 5 mg/kg, IV, 5 mg/kg
[12] = rat, blood, po, 10 mg/kg, OS (oral), 10 mg/Kg, read-out: Tmax (converted)
[13] = rat, blood, po, 10 mg/kg, OS (oral), 10 mg/Kg
[14] = 90° C., 12 hours (or at least 12 hours), XRPD

SMILES	dissolution rate [4]	solubility at 24 h [5] [µg/mL]	hygroscopicity of the isolated product [8]	V ([2]; IV, 5 mg/kg) [L/kg]	CL ([2]; OS (oral), 10 mg/Kg) [L/kg/min]	V ([2]; OS (oral), 10 mg/Kg) [L/kg]	bioavailability ([2]; rat, blood) [%]	clearance ([2]; rat, blood, iv, 5 mg/kg) [mL/min/kg]	half-life [2, 11] [min]	Tmax [2, 12] [h]	half-life [2, 13] [min]	stability to milling [3]	thermal stability of crystalline form ([7]; 40° C., 70% RH, 7 days, XRPD)	thermal stability of crystalline form [7, 14]	other results
c1ccc(-c2ncc3cc(-n4ccnc4)ccc3n2)cc1 [6-(1H-imidazol-1-yl)-2-phenylquinazoline]	–	–	–	–	–	–	–	–	–	–	–	–	–	–	BCS class [1]: class II
c1ccc(-c2ncc3cc(-n4ccnc4)ccc3n2)cc1 [dihydrochloride monohydrate form A, 6-(1H-imidazol-1-yl)-2-phenylquinazoline dihydrochloride monohydrate]	2.17×10^−3 gr/min	138000	non-hygroscopic	–	–	–	–	–	–	–	–	–	–	–	CL [2, 9]: 0.024 L/kg/min; T½ [2, 9]: 46.6 min; V [2, 9]: 1.26 L/kg; F (bioavailability) ([2]; dihydrochloride monohydrate): 90.0%; CL [2, 10]: 0.018 L/kg/min; Tmax [2, 10]: 1.33 h; T½ [2, 10]: 59.9 min; V [2, 10]: 2.96 L/kg; stability to milling ([3]; dihydrochloride monohydrate): No increase in the amount of amorphous product present relative to the reference example, as well as no foreign signals attributable to other forms; hygroscopicity (DVS) [6]: in the range 30-80% relative humidity (RH), the product is not particularly hygroscopic; water content (DVS) ([6]; range 30-80% relative humidity): about 5%; thermal stability of crystalline form ([7]; 40° C., RH 85%, 7 days, XRPD, dihydrochloride monohydrate): stable; time after which complete conversion into the monohydrochloride is noted ([7]; 90° C., VT-XRPD): 48 h; time after which formation of the monohydrochloride is noted ([7]; 90° C., VT-XRPD): 36 h; thermal stability of crystalline form ([7]; 90° C., several hours): stable
O=C(O)/C=C\C(=O)O.c1ccc(-c2ncc3cc(-n4ccnc4)ccc3n2)cc1 [maleate form A, 6-(1H-imidazol-1-yl)-2-phenylquinazoline maleate]	1.45×10^−3 gr/min	7900	non-hygroscopic	1.3	0.016	1.90	100	22	45.6	1	45	has not undergone any changes of crystalline form, but a slight increase in the presence of amorphous product is revealed, which recrystallizes within a few hours on standing	stable	stable	hygroscopicity (DVS) ([6]; maleate): not hygroscopic in the range 0-85% RH; also recorded: not particularly hygroscopic even at values of greater than 85% RH
c1ccc(-c2ncc3cc(-n4ccnc4)ccc3n2)cc1 [polymorph A, 6-(1H-imidazol-1-yl)-2-phenylquinazoline]	–	–	–	1.28	0.022	1.60	–	21	42.1	1.67	45.4	without any contamination with other crystalline forms, and no appreciable formation of amorphous material	–	stable	F (bioavailability) [2]: 50.3%; thermal stability of crystalline form ([7]; 40° C., RH 85%, 5 days (at least 5 days for polymorph A), XRPD): stable; solubility at 24 h (physchem): 1800 µg/mL (≈ 6.61 mM)
O=C(O)CCC(=O)O.c1ccc(-c2ncc3cc(-n4ccnc4)ccc3n2)cc1 [succinate form A, 6-(1H-imidazol-1-yl)-2-phenylquinazoline succinate]	3.53×10^−5 gr/min	600	–	1.1	0.019	3.74	65	18	48.9	1	48.6	has not undergone any changes of crystalline form and no presence of amorphous product is revealed	–	stable	hygroscopicity (DVS) ([6]; succinate): not entirely hygroscopic; also recorded: only at about 90% RH is there a significant minimum absorption of water; thermal stability of crystalline form ([7]; 40° C., RH 85%, 7 days, XRPD): stable; hygroscopicity of the isolated product ([8]; succinate): non-hygroscopic
O=C(O)C(O)C(O)C(=O)O.c1ccc(-c2ncc3cc(-n4ccnc4)ccc3n2)cc1 [tartrate form A, 6-(1H-imidazol-1-yl)-2-phenylquinazoline (L) tartrate dihydrate]	1.04×10^−3 gr/min	2500	non-hygroscopic	1.4	0.017	5.47	81	23	47.7	1.67	47.2	has not undergone any changes of crystalline form, and a slight increase in the presence of amorphous product is revealed	stable	–	hygroscopicity (DVS) ([6]; tartrate dihydrate): not hygroscopic in the range 25-70% RH; also recorded: point of inflection at 75% RH; also recorded: highly hygroscopic only at values of greater than 80% RH; thermal stability of crystalline form ([7]; 90° C., 12 hours (or at least 12 hours), XRPD, tartrate dihydrate): gives rise to the amorphous form
